Laboratory results taken from a melting point compilation (Tetko et al.; mined from patent text by program, amines drawn as free bases though some values may be those of a salt).

melting point [°C] | SMILES
286 to 289 | CCOC(=O)c1cnc2cc(-c3ccccc3)sc2c1O
62 to 65 | CCOC(=O)c1ccc(OCC#Cc2ccccc2)c(OC)c1
227 to 230 | N#Cc1cc(C2=Nc3ccc(C4CC4)cc3NC(=O)C2)ccn1
43.5 to 45 | CCOC(=O)C(Oc1ccc(Cl)cc1)C(=O)OCC
260 to 261 | Cn1c(=O)cc(-c2cccc(O)c2)c2cccnc21
197 to 199 | CCOc1cc(Cc2cnc(N)nc2N)cc2c1OC(C)(C)C=C2Cl
152 to 153 | CC(=O)Oc1ccc(-c2cnc(-c3ccccc3)nc2Cl)cc1OC(C)=O
273 to 275 | CCOC(=O)c1cc2c(cn1)[nH]c1cccc(Oc3ncccn3)c12
282 | CCOC(=O)c1nc(S)n2c1c(=O)n(C)c1cc(C(F)(F)F)ccc12
149 to 151 | COCc1cc2c(cc1O)CCC1C2CCC2(C)C(=O)CCC12 (stereo unspecified)
279 to 280 | COc1ccc(-c2nc3nccnc3[nH]2)c(N(C)C)c1
176 to 177 | CSc1ccc(-c2nn(Cc3ccc(F)cc3F)c(=S)cc2-c2ccc(Cl)cc2)cc1
356 to 358 | COc1cc2[nH]c(=O)[nH]c(=O)c2cc1Cl
110 | CN(C)CCOc1ccccc1NC(=O)c1cccc2[nH]ccc12
163 to 164 | CC(C)(C)c1cc(CCc2ccccc2NC(=O)NCc2cccnc2)cc(C(C)(C)C)c1O
158 to 160 | COc1ccc2c(n1)C1(CO2)C(=O)N(Cc2cnc(C(C)C)s2)c2cccc(Br)c21 (stereo unspecified)
149 to 150 | CC1(C)COc2ccc(C[C@@H](NC(=O)c3cccc4c3C=CCCC4)[C@@H](O)c3cccc(Cl)c3)cc21 (racemic)
155 to 156 | O=C(Nc1ccc(Cl)cc1)OCCOc1ccc(Oc2ccccc2)cc1Cl
79 to 81 | CCOc1cccc(-c2ccc(C3=CCN(S(=O)(=O)CC(=O)OC)CC3)cc2C)c1
95 to 96 | CC1=C(C)C(Cl)N(c2ccc(Cl)c(Cl)c2)C1=O (stereo unspecified)

Continued, compound first:

SMILES | melting point [°C]
COc1ncnc2c(Cl)c(NC3=NCCN3)ccc12 | 238 to 239
N#CCc1cn(Cc2ccc(OCc3ccccc3)cc2)nc1-c1ccc(F)cc1 | 86 to 87
OCc1ccccc1C(F)(F)C(F)(F)c1ccccc1 | 80 to 81
O=C1c2ccccc2C(=O)N1CSc1ccccn1 | 93 to 94
O=C(O)c1ccc(NCCOc2cccc3ccccc23)cc1 | 193 to 194
O=C(NCCSCc1ccc(Cl)cc1)c1c(Cl)cccc1Cl | 104 to 106
CCC(CC)O[C@@H]1C=C(C(=O)O)C[C@H](CC=O)[C@H]1NC(C)=O | 70 to 71
CCSc1ccc2c3c([nH]c2c1)CCCCC3C (stereo unspecified) | 44
CCCCn1c(C)cc(=O)c(C(=O)Nc2ccccc2)c1-c1ccccc1 | 190 to 193
CONC(=O)Nc1ccc(-c2sc3c(c2CN(C)C(C)c2ccccc2)c(=O)n(-c2ccccn2)c(=O)n3Cc2c(F)cccc2F)cc1 (stereo unspecified) | 168 to 170
CC1=C(C(=O)OCC2CCCO2)C(c2cccc([N+](=O)[O-])c2)C(C(=O)OCC2CCCO2)=C(C)N1 (stereo unspecified) | 122 to 123
Cc1cc2c(cc1C)SC(CCCN1CCN(c3ccc(F)cc3)CC1)C(=O)N2 (stereo unspecified) | 161 to 162
O=C1C(=Cn2ccnc2)C(c2ccccc2)Oc2ccccc21 (stereo unspecified) | 129 to 131
CC(C)n1nc(-c2cc(C(=O)N3CCN(C)CC3)cnc2-c2ccccc2)ccc1=O | 165 to 166
Fc1cccc(F)c1C1=NCC(=S)Nc2ccc(Cl)cc21 | 222 to 224
CCCCCCCCSc1ccc(CC(CO)(CO)NC(C)=O)cc1 | 76 to 78

SMILES | melting point [°C]
CC(=O)N(c1ccccn1)c1ncc(Br)s1 | 132 to 138
O=C(CCN1CCCCC1)Nc1ccc2c(c1)C(=O)c1cc(NC(=O)CCN3CCCCC3)ccc1C2=O | 240
CCCCCCCCCCCCCCOc1ccc(O)cc1 | 81 to 82
CC12CCC(O)CC1=CCC1C2CCC2(C)C(=NC3CC3)CCC12 (stereo unspecified) | 187
O=C1NCCSc2sccc21 | 157 to 158
COc1cccc(P(=O)(c2ccc(C)cc2)c2ccc(C)cc2)c1I | 146 to 148
O=C(O)CC(=O)Nc1ccc2c(=O)[nH]c(=O)n(CCCCN3CCC(OC(c4ccccc4)c4ccccc4)CC3)c2c1 | 230 to 232
CCCCCCCc1cnc(N)s1 | 75 to 76
Fc1ccc2[nH]cc(CCCN3CCN(c4cccc(Cl)c4Cl)CC3)c2c1 | 147 to 148
O=C1CN(c2ccc(Cl)cc2)C(=O)N1C(=O)c1c(Cl)cccc1Cl | 176 to 180
CCN(CC)C(=O)CCS(=O)(=O)c1cc(-c2ccccc2)nc2ccccc12 | 100
CC(=O)c1c(C)oc(-c2ccncc2)c1C | 65 to 66.5
COC(=O)COc1ccc(C(=O)CN2CCN(c3ccncc3)CC2=O)cc1 | 164 to 165
CN(C)C(=S)C1(c2ccccn2)CCCS1 (stereo unspecified) | 100
Cc1c(-c2ccccc2)oc2c(C=CC(=O)O)cccc2c1=O | 226 to 229
